The text below walks through data of patent EP0145484B1, “Vancomycin purification improvement and product” (ELI LILLY AND COMPANY, priority 1983, dated 1985).

A short description of this series: Stability of bulk samples on storage. Type of series: physicochemical. The note with it: three lots prepared by the method of Example 2, stored at 21-28°C in polyethylene containers; over a twelve month period; 525600 min. As to the method:
The vancomycin diphosphate crystal form provided by this invention is a highly crystalline solid when hydrated that is stable over prolonged periods of time. The stability of bulk samples of vancomycin diphosphate was determined by preparing three lots of the compound by the method of Example 2. Samples of the three individual lots were stored at 21-28°C in polyethylene containers. Various physical parameters of each of the three lots were analyzed at zero, six, twelve and eighteen months.

Turning to vancomycin diphosphate, the “initial biological activity retained” value is recorded as “more than 90%”.
